Results taken from patent US8293774B2, “Optically active (R)-aryloxypropionic acid amides and herbicidal composition comprising same” (Kyung Nong Corporation, priority 2007, dated 2012).

Experiments:
[1] = system: ORYSA (Oryza sativa cv. Dongjin, rice); test: Weed control test, foliage treatment (Test Example 1, Table 7); details: in vivo
Method: (§1) Seeds of rice, wheat, soy bean, barley, corn, common sorgum, barnyard grass, large crabgrass, creek grass, green foxtail and fall panicum were placed in sandy loam in 600 cm^2 pots and covered with soil. After keeping the pots in a greenhouse at 20 to 30° C. allowing growth of the plants to the 3-leaf stage of the barnyard grass, 2,000 l/ha of an emulsion obtained by diluting with water a mixture of 1 part by weight of a test compound, 5 parts by weight of acetone and 1 part by weight of an emulsifying agent (Tween 80, Junsei) was applied to the surface of the foliage of the plants. The plant damage at 10 days and 20 days after the foliage treatment was visually evaluated from the level of 1 to 100% by comparison with the untreated control: […]

[2] = system: GLXMA (Glycine max(L.) MERR, soy bean); test: as above; details: in vivo
Method: as §1

[3] = system: TRZAW (Tritium aestivum L., wheat); test: as above; details: in vivo
Method: as §1

Barnyard grass = test: Weed control test, 4-leaf stage plants (Test Example 1, Table 8); assay type: in vivo, Echinoch crus-galli Beauv. var. caudata Kitagawa
From the text: as §1, with “[…],” for “After keeping the pots in a greenhouse at 20 to 30° C. allowing growth of the plants to the 3-leaf stage of the barnyard grass,”

Rice = test: as above; details: in vivo
Method: as §1

[4] = system: SETVIR (Setaria viridis (L.) Beauv, green foxtail); test: Weed control test, foliage treatment (Test Example 1, Table 7); assay type: in vivo; details: Setaria viridis, foliar, read-out: Plant damage (herbicidal activity), visually evaluated, SETVIR; for pest or weed control at 25 g/ha: 0.025 kg/ha; for pest or weed control at 100 g/ha: 0.1 kg/ha; for pest or weed control at 200 g/ha: 0.2 kg/ha
Method: as §1

[5] = system: PANDI (Panium dichotomiflorum Michx, fall panicum); test: as above; assay type: in vivo; details: Panicum dichotomiflorum, foliar, read-out: Plant damage (herbicidal activity), visually evaluated, PANDI; for pest or weed control at 25 g/ha: 0.025 kg/ha; for pest or weed control at 100 g/ha: 0.1 kg/ha; for pest or weed control at 200 g/ha: 0.2 kg/ha
Method: as §1

[6] = system: DIGSA (Digitaria Sanguinalis (L.) SCOP, large crabgrass); test: as above; assay type: in vivo; details: Digitaria sanguinalis, foliar, read-out: Plant damage (herbicidal activity), visually evaluated, DIGSA; for pest or weed control at 25 g/ha: 0.025 kg/ha; for pest or weed control at 100 g/ha: 0.1 kg/ha; for pest or weed control at 200 g/ha: 0.2 kg/ha
Method: as §1

[7] = system: ARTHIS (Arthraxon hispidus (Thunb.) Makino, creek grass); test: as above; assay type: in vivo; details: Arthraxon hispidus, foliar, read-out: Plant damage (herbicidal activity), visually evaluated, ARTHIS; for pest or weed control at 25 g/ha: 0.025 kg/ha; for pest or weed control at 100 g/ha: 0.1 kg/ha; for pest or weed control at 200 g/ha: 0.2 kg/ha
Method: as §1

[8] = system: ZEAMX (Zea mays L., corn); test: as above; assay type: in vivo; details: Zea mays, foliar, read-out: Plant damage (herbicidal activity), visually evaluated, ZEAMX; for plant injury at 25 g/ha: 0.025 kg/ha; for plant injury at 100 g/ha: 0.1 kg/ha; for plant injury at 200 g/ha: 0.2 kg/ha
Method: as §1

[9] = system: ECHOG (Echinoch crus-galli Beauv. var. caudata Kitagawa, barnyard grass); test: as above; assay type: in vivo; details: Echinochloa crus-galli, foliar, 3-leaf stage, read-out: Plant damage (herbicidal activity), visually evaluated, ECHOG; for pest or weed control at 25 g/ha: 0.025 kg/ha; for pest or weed control at 100 g/ha: 0.1 kg/ha; for pest or weed control at 200 g/ha: 0.2 kg/ha
Method: as §1

[10] = system: SORBI (Andropogon sorghum, common sorgum); test: as above; assay type: in vivo; details: Sorghum bicolor, foliar, read-out: Plant damage (herbicidal activity), visually evaluated, SORBI; for pest or weed control at 25 g/ha: 0.025 kg/ha; for pest or weed control at 100 g/ha: 0.1 kg/ha; for pest or weed control at 200 g/ha: 0.2 kg/ha
Method: as §1

[11] = system: HORVU (Hordeum vulgare L., barley); test: as above; details: in vivo
Method: as §1

Structure (SMILES): C[C@@H](Oc1ccc(Oc2nc3ccc(Cl)cc3o2)cc1)C(=O)N(C)c1nc2ccccc2s1 [Example 6, (R)-2-[4-(6-chloro-2-benzoxazolyloxy)phenoxy]propionic acid-N-(2-benzothiazolyl)-N-methyl amide]
- Plant damage (herbicidal activity), visually evaluated, ORYSA [1]: 0%
- Plant damage (herbicidal activity), visually evaluated, GLXMA [2]: 0%
- Plant damage (herbicidal activity), visually evaluated, TRZAW [3]: 0%
- Plant damage (herbicidal activity), visually evaluated, Barnyard grass (Barnyard grass; 0.025 kg/ha): 0%
- Plant damage (herbicidal activity), visually evaluated, Barnyard grass (Barnyard grass; 0.05 kg/ha): 0%
- Plant damage (herbicidal activity), visually evaluated, Barnyard grass (Barnyard grass; 0.1 kg/ha): 10%
- Plant damage (herbicidal activity), visually evaluated, Barnyard grass (Barnyard grass; 0.4 kg/ha): 30%
- Plant damage (herbicidal activity), visually evaluated, Rice (Rice): 0%
- pest or weed control at 25 g/ha [4]: 0%
- pest or weed control at 100 g/ha [4]: 20%
- pest or weed control at 200 g/ha [4]: 50%
- pest or weed control at 25 g/ha [5]: 0%
- pest or weed control at 100 g/ha [5]: 20%
- pest or weed control at 200 g/ha [5]: 70%
- pest or weed control at 25 g/ha [6]: 0%
- pest or weed control at 100 g/ha [6]: 20%
- pest or weed control at 200 g/ha [6]: 70%
- pest or weed control at 25 g/ha [7]: 0%
- pest or weed control at 100 g/ha [7]: 20%
- pest or weed control at 200 g/ha [7]: 50%
- plant injury at 25 g/ha [8]: 0%
- plant injury at 100 g/ha [8]: 10%
- plant injury at 200 g/ha [8]: 90%
- pest or weed control at 25 g/ha [9]: 0%
- pest or weed control at 100 g/ha [9]: 20%
- pest or weed control at 200 g/ha [9]: 70%
- pest or weed control at 25 g/ha [10]: 10%
- pest or weed control at 100 g/ha [10]: 50%
- pest or weed control at 200 g/ha [10]: 90%

Structure (SMILES): C[C@@H](Oc1ccc(C(F)=C(c2ccc(F)cc2)C(F)(F)F)cc1)C(=O)Nc1ccccc1F [Example 40, (R)-2-[4-(1,3,3,3-tetrafluoro-2-(4-fluorophenyl)prop-1-enyl)phenoxy]propionic acid-N-(2-fluorophenyl)amide]
- Plant damage (herbicidal activity), visually evaluated, ORYSA [1]: 0%
- Plant damage (herbicidal activity), visually evaluated, GLXMA [2]: 0%
- Plant damage (herbicidal activity), visually evaluated, TRZAW [3]: 0%
- Plant damage (herbicidal activity), visually evaluated, HORVU [11]: 0%
- pest or weed control at 25 g/ha [4]: 0%
- pest or weed control at 100 g/ha [4]: 0%
- pest or weed control at 200 g/ha [4]: 20%
- pest or weed control at 25 g/ha [5]: 0%
- pest or weed control at 100 g/ha [5]: 0%
- pest or weed control at 200 g/ha [5]: 10%
- pest or weed control at 25 g/ha [6]: 70%
- pest or weed control at 100 g/ha [6]: 90%
- pest or weed control at 200 g/ha [6]: 90%
- pest or weed control at 25 g/ha [7]: 0%
- pest or weed control at 100 g/ha [7]: 0%
- pest or weed control at 200 g/ha [7]: 10%
- plant injury at 25 g/ha [8]: 90%
- plant injury at 100 g/ha [8]: 100%
- plant injury at 200 g/ha [8]: 100%
- pest or weed control at 25 g/ha [9]: 20%
- pest or weed control at 100 g/ha [9]: 70%
- pest or weed control at 200 g/ha [9]: 90%
- pest or weed control at 25 g/ha [10]: 0%
- pest or weed control at 100 g/ha [10]: 20%
- pest or weed control at 200 g/ha [10]: 50%

Structure (SMILES): C[C@@H](Oc1ccc(Oc2ccc(C#N)cc2F)cc1)C(=O)Nc1nc2ccccc2s1 [Example 19, (R)-2-[4-(4-cyano-2-fluorophenoxy)phenoxy]propionic acid-N-(2-benzothiazolyl)amide]
- Plant damage (herbicidal activity), visually evaluated, ORYSA [1]: 0%
- Plant damage (herbicidal activity), visually evaluated, GLXMA [2]: 0%
- Plant damage (herbicidal activity), visually evaluated, TRZAW [3]: 0%
- Plant damage (herbicidal activity), visually evaluated, HORVU [11]: 0%
- pest or weed control at 25 g/ha [4]: 0%
- pest or weed control at 100 g/ha [4]: 10%
- pest or weed control at 200 g/ha [4]: 10%
- pest or weed control at 25 g/ha [5]: 0%
- pest or weed control at 100 g/ha [5]: 0%
- pest or weed control at 200 g/ha [5]: 0%
- pest or weed control at 25 g/ha [6]: 0%
- pest or weed control at 100 g/ha [6]: 10%
- pest or weed control at 200 g/ha [6]: 30%
- pest or weed control at 25 g/ha [7]: 0%
- pest or weed control at 100 g/ha [7]: 10%
- pest or weed control at 200 g/ha [7]: 10%
- plant injury at 25 g/ha [8]: 0%
- plant injury at 100 g/ha [8]: 10%
- plant injury at 200 g/ha [8]: 30%
- pest or weed control at 25 g/ha [9]: 0%
- pest or weed control at 100 g/ha [9]: 20%
- pest or weed control at 200 g/ha [9]: 30%
- pest or weed control at 25 g/ha [10]: 20%
- pest or weed control at 100 g/ha [10]: 60%
- pest or weed control at 200 g/ha [10]: 70%

Structure (SMILES): C[C@@H](Oc1ccc(OC(F)=Cc2ccc(Cl)cc2)cc1)C(=O)Nc1nc2cc(Cl)ccc2o1 [Example 56, (R)-2-[4-(1-fluoro-2-(4-chlorophenyl)vinyloxy)phenoxy]propionic acid-N-(5-chloro-2-benzoxazolyl)amide]
- Plant damage (herbicidal activity), visually evaluated, ORYSA [1]: 0%
- Plant damage (herbicidal activity), visually evaluated, GLXMA [2]: 0%
- Plant damage (herbicidal activity), visually evaluated, TRZAW [3]: 0%
- Plant damage (herbicidal activity), visually evaluated, HORVU [11]: 0%
- pest or weed control at 25 g/ha [4]: 0%
- pest or weed control at 100 g/ha [4]: 0%
- pest or weed control at 200 g/ha [4]: 20%
- pest or weed control at 25 g/ha [5]: 0%
- pest or weed control at 100 g/ha [5]: 0%
- pest or weed control at 200 g/ha [5]: 10%
- pest or weed control at 25 g/ha [6]: 0%
- pest or weed control at 100 g/ha [6]: 20%
- pest or weed control at 200 g/ha [6]: 90%
- pest or weed control at 25 g/ha [7]: 0%
- pest or weed control at 100 g/ha [7]: 0%
- pest or weed control at 200 g/ha [7]: 10%
- plant injury at 25 g/ha [8]: 10%
- plant injury at 100 g/ha [8]: 90%
- plant injury at 200 g/ha [8]: 90%
- pest or weed control at 25 g/ha [9]: 20%
- pest or weed control at 100 g/ha [9]: 70%
- pest or weed control at 200 g/ha [9]: 90%
- pest or weed control at 25 g/ha [10]: 0%
- pest or weed control at 100 g/ha [10]: 20%
- pest or weed control at 200 g/ha [10]: 20%

Structure (SMILES): C[C@@H](Oc1ccc(C(F)=C(c2ccccc2)C(F)(F)F)cc1)C(=O)Nc1ccccc1F [Example 42, (R)-2-[4-(1,3,3,3-tetrafluoro-2-phenylprop-1-enyl)phenoxy]propionic acid-N-(2-fluorophenyl)amide]
- Plant damage (herbicidal activity), visually evaluated, ORYSA [1]: 0%
- Plant damage (herbicidal activity), visually evaluated, GLXMA [2]: 0%
- Plant damage (herbicidal activity), visually evaluated, TRZAW [3]: 0%
- Plant damage (herbicidal activity), visually evaluated, HORVU [11]: 0%
- pest or weed control at 25 g/ha [4]: 0%
- pest or weed control at 100 g/ha [4]: 0%
- pest or weed control at 200 g/ha [4]: 70%
- pest or weed control at 25 g/ha [5]: 0%
- pest or weed control at 100 g/ha [5]: 0%
- pest or weed control at 200 g/ha [5]: 70%
- pest or weed control at 25 g/ha [6]: 0%
- pest or weed control at 100 g/ha [6]: 0%
- pest or weed control at 200 g/ha [6]: 20%
- pest or weed control at 25 g/ha [7]: 0%
- pest or weed control at 100 g/ha [7]: 0%
- pest or weed control at 200 g/ha [7]: 50%
- plant injury at 25 g/ha [8]: 0%
- plant injury at 100 g/ha [8]: 30%
- plant injury at 200 g/ha [8]: 90%
- pest or weed control at 25 g/ha [9]: 0%
- pest or weed control at 100 g/ha [9]: 20%
- pest or weed control at 200 g/ha [9]: 20%
- pest or weed control at 25 g/ha [10]: 0%
- pest or weed control at 100 g/ha [10]: 0%
- pest or weed control at 200 g/ha [10]: 0%
